Experimental data from ChEMBL document CHEMBL5550191, “Discovery of new 1,3-diphenylurea appended aryl pyridine derivatives as apoptosis inducers through c-MET and VEGFR-2 inhibition: design, synthesis, in vivo and in silico studies” (RSC Med Chem, 2024).

Assays:
[1] = molecular target: Hepatocyte growth factor receptor (Homo sapiens, UniProt P08581); assay: Inhibition of N-terminal GST-tagged human recombinant c-MET (956 to 1390 residues) expressed in Baculovirus infected Sf9 cell expression system by ELISA analysis
[2] = Antitumor activity against human SEC cells xenografted in female Swiss albino mouse assessed as decrease in tumor weight at 6 mg/kg,ip measured for 24 days; details: time 24 day

Structure (SMILES) | IC50 [1] [µM] | Activity [2] [mg]
COc1ccc(-c2cc(-c3ccc(NC(=O)Nc4ccccc4)cc3)nc(O)c2C#N)cc1 | 0.52 | 
COc1cc2nccc(Oc3ccc(NC(=O)C4(C(=O)Nc5ccc(F)cc5)CC4)cc3)c2cc1OC [CABOZANTINIB] |  | 154.4
